According to ChEMBL document CHEMBL1143240, “Inhibiting dihydrodipicolinate synthase across species: towards specificity for pathogens?” (Bioorg Med Chem Lett, 2008):
Active and inactive are the calls of the source. No cut-off for these calls is given here.

What was measured:
[1] = biological target: T1, Dihydrodipicolinate synthase (Bacillus anthracis) (UniProt A0A6L7H340); test: Inhibition of Bacillus anthracis DHDPS at 20 mM
T1 sequence (whole entry): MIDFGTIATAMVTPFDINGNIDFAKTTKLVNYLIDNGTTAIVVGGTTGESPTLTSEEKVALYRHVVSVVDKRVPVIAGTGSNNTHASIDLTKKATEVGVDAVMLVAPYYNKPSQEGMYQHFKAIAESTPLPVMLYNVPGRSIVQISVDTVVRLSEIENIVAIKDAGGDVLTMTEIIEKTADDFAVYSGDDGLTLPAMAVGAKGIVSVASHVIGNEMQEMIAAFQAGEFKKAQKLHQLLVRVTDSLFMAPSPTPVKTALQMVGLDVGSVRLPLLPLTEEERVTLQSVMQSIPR

Escherichia coli [2] = test: Inhibition of Escherichia coli DHDPS at 20 mM
[3] = biological target: 4-hydroxy-tetrahydrodipicolinate synthase (Mycobacterium tuberculosis) (UniProt P9WP25); test: Inhibition of Mycobacterium tuberculosis DHDPS at 20 mM
Escherichia coli [4] = test: Inhibition of Escherichia coli NAL at 20 mM
Staphylococcus aureus = test: Inhibition of methicillin-resistant Staphylococcus aureus DHDPS at 20 mM
Escherichia coli [5] = test: Antibacterial activity against Escherichia coli at 20 uM relative to control; type: functional, organism-based
[6] = Inhibition of Escherichia coli DHDPS

Work on `COC(=O)c1cccc(C(=O)OC)n1` yielded an inhibition [1] of 13%, an inhibition (Escherichia coli [2]) of 5% and an inhibition [3] of 0%. It also gave an inhibition (Escherichia coli [4]) of 0% and an inhibition (Staphylococcus aureus) of 0%.

Work on `O=C(O)c1cc(=O)cc(C(=O)O)[nH]1` yielded an inhibition [1] of 0%, an inhibition (Escherichia coli [2]) of 74% and an inhibition [3] of 73%. The inhibition (Escherichia coli [4]) was 27%, the inhibition (Staphylococcus aureus) was 83% and the Activity (Escherichia coli [5]) was “Active”.

With `CC(=O)C(=O)O` [PYRUVATE] the Ki [6] was 7 mM.

Work on `COC(=O)[C@@H]1C[S@+]([O-])C[C@H](C(=O)OC)N1` yielded an inhibition [1] of 22%, an inhibition (Escherichia coli [2]) of 20% and an inhibition [3] of 14%. For the same molecule, the inhibition (Escherichia coli [4]) was 38% and the inhibition (Staphylococcus aureus) was 12%.

`COC(=O)[C@@H]1CS(=O)(=O)C[C@@H](C(=O)OC)N1` gave an inhibition [1] of 6%, an inhibition (Escherichia coli [2]) of 14% and an inhibition [3] of 7%. The inhibition (Escherichia coli [4]) was 0% and the inhibition (Staphylococcus aureus) was 0%.

For `COC(=O)[C@@H]1C[S+]([O-])C[C@@H](C(=O)OC)N1` (some centres undefined), the inhibition [1] was 7%, the inhibition (Escherichia coli [2]) was 0% and the inhibition [3] was 0%. It also gave an inhibition (Escherichia coli [4]) of 7% and an inhibition (Staphylococcus aureus) of 7%.

Work on `COC(=O)[C@@H]1CS(=O)(=O)C[C@H](C(=O)OC)N1` yielded an inhibition [1] of 19%, an inhibition (Escherichia coli [2]) of 0% and an inhibition [3] of 6%. The inhibition (Escherichia coli [4]) was 3%, the inhibition (Staphylococcus aureus) was 0% and the Activity (Escherichia coli [5]) was “inactive”.

Work on `COC(=O)[C@@H]1CSC[C@H](C(=O)OC)N1` yielded an inhibition [1] of 23%, an inhibition (Escherichia coli [2]) of 35% and an inhibition [3] of 0%. For the same molecule, the inhibition (Escherichia coli [4]) was 1% and the inhibition (Staphylococcus aureus) was 0%.

`N[C@@H](CC=O)C(=O)O` gave a Ki [6] of 14 mM.

Molecule `COC(=O)[C@@H]1C[S@@+]([O-])C[C@H](C(=O)OC)N1` has an inhibition [1] of 8%, an inhibition (Escherichia coli [2]) of 8% and an inhibition [3] of 1%. It also gave an inhibition (Escherichia coli [4]) of 0% and an inhibition (Staphylococcus aureus) of 10%.

`O=C(O)[C@@H]1CCC[C@H](C(=O)O)N1` showed an inhibition [1] of 73%, an inhibition (Escherichia coli [2]) of 49% and an inhibition [3] of 43%. The inhibition (Escherichia coli [4]) was 21% and the inhibition (Staphylococcus aureus) was 51%.

With `O=C(O)c1cccc(C(=O)O)n1` the inhibition [1] was 80%, the inhibition (Escherichia coli [2]) was 76% and the inhibition [3] was 75%. It also gave an inhibition (Escherichia coli [4]) of 1% and an inhibition (Staphylococcus aureus) of 67%.

For `COC(=O)[C@@H]1CCC[C@H](C(=O)OC)N1`, the inhibition [1] was 99%, the inhibition (Escherichia coli [2]) was 92% and the inhibition [3] was 24%. For the same molecule, the inhibition (Escherichia coli [4]) was 18% and the inhibition (Staphylococcus aureus) was 58%.

Molecule `COC(=O)c1cc(=O)cc(C(=O)OC)[nH]1` has an inhibition [1] of 0%, an inhibition (Escherichia coli [2]) of 85% and an inhibition [3] of 84%. It also gave an inhibition (Escherichia coli [4]) of 64% and an inhibition (Staphylococcus aureus) of 88%.

`COC(=O)[C@@H]1CSC[C@@H](C(=O)OC)N1` showed an inhibition [1] of 19%, an inhibition (Escherichia coli [2]) of 12% and an inhibition [3] of 0%. The inhibition (Escherichia coli [4]) was 0% and the inhibition (Staphylococcus aureus) was 0%.
